Results taken from patent publication US10898458B2, “Self-micellizing fatty acids and fatty acid ester compositions and their use in the treatment of disease states” (Micelle BioPharma, Inc., priority 2013, dated 2021).
Blank lines part the entries; values can stand above or below the molecule they belong to.

Legend:
[1] = in humans; cited from earlier work
porcine model of SBS [2] = test: Growth (weight) in neonatal porcine model of SBS; type: in vivo, piglets; details: median ± IQR; for Change in weight: final minus starting weight, 4 days at 1 g/kg*day
Protocol: A study was conducted to evaluate, in an established porcine model of SBS, the systemic absorption and intestinal adaptation capacity of an ethyl ester form of DHA in combination with a surface active agent composition effective to spontaneously form micelles with said fatty acids upon contact with an aqueous media. In certain embodiments, the self-micellizing compositions may further contain at least one additional omega-3 fatty acid (either in the triglyceride, ester, or free fatty acid form), for example EPA or other known omega-3 fatty acids as disclosed herein. In certain embodiments, the self-micellizing compositions may further contain an anti-oxidant, such as tocopherol. In certain embodiments, the self-micellizing compositions may further contain an omega-6 fatty acid (either in the triglyceride, ester, or free fatty acid form), for example arachidonic acid (ARA), linoleic acid (LA), gamma-linolenic acid (GLA) or the omega-6 isomer of DPA, also known as osbond acid. This composition allows for micelle formation independent of the presence of bile salts as compared to a standard […] of DHA without a surface active agent (Control).
(§1) Newborn, crossbred (Hampshire×Landrace×Duroc×Yorkshire) piglets (n=10), were weighed, placed in cages in a heated room (˜30° C.), and were fed with a commonly available sow milk replacement formula. After an overnight fast, piglets underwent surgery for the placement of jugular and intragastric catheters for postoperative parenteral and enteral nutrition, respectively, and small bowel resection surgery. Following a 4-cm midline incision an 80% mid-jejunoileal resection was performed. The total amount of bowel resection was approximated using the following equation: total intestinal length=280 cm×body weight^0.60. A 20% remnant (˜60 cm total per kg BW) remained and was represented equally between proximal jejunum and ileum, representing ˜30 cm each remnant segment per kg bodyweight. ˜45 cm of jejunum distal to the ligament of Treitz and ˜45 cm of ileum proximal to the ileocecal junction were measured using sterile silk ribbon placed along the antimesentric border of the gently stretched small intestine. Intestine not included in the measurement was removed via cauterization. Bowel continuity was restored using an end-to-end jejunoileal anastomosis.
Continuous enteral feeding with a commonly available sow milk replacer formula, also lacking DHA, was slowly introduced 24 h after intestinal resection at 3 mL/kg*h via the intragastric catheter. The volume of enteral feedings was then advanced every 24 h by 1 ml/kg*h until a final enteral volume of 5 mL/kg*h was achieved on postoperative day 3 which represents approximately 50% of full enteral feeding volume and nutrient intake.
(§2) The control group received a standard DHA ethyl ester preparation of substantially pure DHA ethyl ester (>90% DHA ethyl ester).
Piglets were weighed every other day. In addition to calculating a change in weight by subtracting the starting weight at the time of randomization from the final weight, percent weight change and growth velocity (g/kg*d) were also calculated. Percent weight change was calculated by: [((final weight-starting weight)/starting weight)×100]. Growth velocity was calculated by: [(weight change/starting weight)/4 days of treatment].
The primary outcome measure was a change in plasma DHA level in the SBS-treated group versus control group. […] Variable summary statistics are expressed as median±interquartile range (IQR). […]

porcine model of SBS [3] = test: Small intestine resection and final organ weights, porcine SBS model; type: in vivo, piglets; details: at sacrifice after 4 days; median ± IQR
Protocol: as §1, §2
(§3) Samples of intestinal tissue resected at the time of surgery and remnants at sacrifice were collected from proximal jejunum (proximal to anastomosis) and distal ileum (distal to anastomosis) and morphological measurements of the crypts and villi were measured. Only intact villi and crypts were measured. All measurements were made by the same, single, blinded observer.
(§4) The primary outcome measure was a change in plasma DHA level in the SBS-treated group versus control group. Given the small number of piglets per group, appropriate small group statistical methods were used to evaluate differences in outcome variables. Variable summary statistics are expressed as median±interquartile range (IQR). The Wilcoxon Rank-Sum test, which is appropriate to compare two non-normal distributions as is common in small sample size, was used to compare outcome measures between groups; while the Wilcoxon signed-rank test, which is appropriate for repeated measurements within the same animal, was used to compare paired, before and after surgery outcome measures within groups. Differences in growth measurements and fatty acid levels over time between groups were evaluated using generalized linear mixed models (GLMM) to account for repeated measures and non-Gaussian, non-normal data.

[4] = Longitudinal plasma fatty acid levels, porcine SBS model; type: in vivo, piglets
Description: as §2
Blood samples for systemic fatty acid profiles were obtained on the day of surgery and then twice daily until sacrifice on fourth postoperative day. Plasma fatty acids were isolated and measured.
as §4

porcine model of SBS [5] = test: Small bowel morphometry (villus height, crypt depth), porcine SBS model; type: in vivo, piglets; details: within group
Protocol: as §2, §3, §4

patients with PSC = details: 12-month open-label pilot study, n=23; cited from earlier work
COX-1 = COX-1 (Homo sapiens, UniProt P23219); details: enzyme involved in synthesis of TXA2; cited from earlier work
Chain of COX-1 (P23219 24-599): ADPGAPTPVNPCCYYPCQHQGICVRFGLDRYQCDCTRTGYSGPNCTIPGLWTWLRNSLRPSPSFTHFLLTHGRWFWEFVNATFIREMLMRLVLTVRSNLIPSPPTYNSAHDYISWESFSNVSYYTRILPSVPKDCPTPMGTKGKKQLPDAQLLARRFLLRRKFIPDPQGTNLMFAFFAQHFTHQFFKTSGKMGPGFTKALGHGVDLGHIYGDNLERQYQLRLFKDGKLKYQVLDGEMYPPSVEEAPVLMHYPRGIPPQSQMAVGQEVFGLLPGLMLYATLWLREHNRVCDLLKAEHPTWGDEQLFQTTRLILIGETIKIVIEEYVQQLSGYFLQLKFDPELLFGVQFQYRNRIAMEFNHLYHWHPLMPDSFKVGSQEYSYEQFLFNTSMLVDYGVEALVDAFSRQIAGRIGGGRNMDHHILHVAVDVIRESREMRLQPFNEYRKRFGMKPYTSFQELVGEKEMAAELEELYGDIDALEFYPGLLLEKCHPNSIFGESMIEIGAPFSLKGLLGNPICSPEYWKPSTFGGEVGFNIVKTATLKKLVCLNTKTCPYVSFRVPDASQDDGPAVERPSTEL

[6] = Time 0, at the time of surgery (baseline)
[7] = within 12 hours, after the first enteral dose of DHA
[8] = end of experiment vs time of surgery

Structure (SMILES): CC/C=C\C/C=C\C/C=C\CCCCCCCC(=O)O [ALA, alpha-linolenic acid]
Conversion to DHA [1]: 2-5%
Conversion to EPA [1]: 5-10%

Initial plasma ARA level [4, 6]: 11.8±0.5 mol %
Initial plasma DHA level [4, 6]: 2.3±0.4 mol %
Initial plasma EPA level [4, 6]: 0.3±0.1 mol %
Initial plasma LA level [4, 6]: 16.6±1.8 mol %
Plasma ARA level ([4]; third postoperative day): 8.7±0.8 mol %
Plasma DHA level [4, 7]: 2.5 mol %
Plasma EPA level [4, 7]: 0.2±0.005 mol %
Structure (SMILES): CC/C=C\C/C=C\C/C=C\C/C=C\C/C=C\C/C=C\CCC(=O)OCC [Control, DHA ethyl ester]
Growth velocity (porcine model of SBS [2]; 4 days of treatment): 13.5 ± 30.1 g/kg/day
Weight change (porcine model of SBS [2]; 4 days of treatment): 5.4 ± 12.1%
Weight at finish (porcine model of SBS [2]; after 4 days at 1 g/kg*day via intragastric catheter): 2594 ± 170 g
Change in weight (porcine model of SBS [2]): 132 ± 278 g
Change in weight (porcine model of SBS [2]; listed as control): 132 ± 278 g
Brain (final weight) (porcine model of SBS [3]): 14.0 ± 1.6 g/kg
Ileum (final length) (porcine model of SBS [3]): 17.5 ± 4.7 cm/kg
Ileum (final weight) (porcine model of SBS [3]): 5.3 ± 1.2 g/kg
Jejunum (final length) (porcine model of SBS [3]): 21.2 ± 6.7 cm/kg
Jejunum (final weight) (porcine model of SBS [3]): 5.2 ± 1.4 g/kg
Liver (final weight) (porcine model of SBS [3]): 36.3 ± 2.5 g/kg
Villus height of distal ileum, Final vs Day 0 (porcine model of SBS [5]; [8]): reduced, but not significantly different
Villus height of proximal jejunum, Final vs Day 0 (porcine model of SBS [5]; [8]): not significantly different
Crypt depth of distal ileum, final vs baseline (porcine model of SBS [5]): increased from baseline
Crypt depth of proximal jejunum, final vs baseline (porcine model of SBS [5]; p<0.05): increased

Structure (SMILES): CC/C=C\C/C=C\C/C=C\C/C=C\C/C=C\C/C=C\CCC(=O)O [DHA, (4Z,7Z,10Z,13Z,16Z,19Z)-docosa-4,7,10,13,16,19-hexaenoic acid]
Alkaline phosphatase (patients with PSC): significant decline
Serum DHA levels (patients with PSC): increase

Structure (SMILES): CC/C=C\C/C=C\C/C=C\C/C=C\C/C=C\CCCCCC(=O)O [Omega-3 DPA, all-cis-7,10,13,16,19-docosapentaenoic acid]
COX-1 activity (COX-1): potent inhibitor
